Experimental data as given in PubChem BioAssay AID1259407 (Chemical Carcinogenesis Research Information System (CCRIS), 2018).
Entries after “also recorded” stand apart in the source; their conditions may differ. Calls of active or inactive are those of the source. How the calls were made is not given here.

Test system: CCRIS mutagenicity, Ames/micronucleus/aberration tests
Assay: CCRIS mutagenicity studies
[1] = Test System: AMES SALMONELLA TYPHIMURIUM, Strain/Indicator: TA98, Metabolic Activation: NONE, Method: STANDARD PLATE
[2] = Test System: AMES SALMONELLA TYPHIMURIUM, Strain/Indicator: TA100, Metabolic Activation: NONE, Method: STANDARD PLATE

Compound: FC(Cl)C(F)(F)F (stereo not drawn)
- mutagenic call (Test System: AMES SALMONELLA TYPHIMURIUM, Strain/Indicator: TA97, Metabolic Activation: NONE, Method: VAPOR CHAMBER): inactive; negative
- mutagenic call (Test System: AMES SALMONELLA TYPHIMURIUM, Strain/Indicator: TA97, Metabolic Activation: RAT LIVER S-9, Method: VAPOR CHAMBER): inactive; negative
- mutagenic call (Test System: AMES SALMONELLA TYPHIMURIUM, Strain/Indicator: TA98, Metabolic Activation: NONE, Method: VAPOR CHAMBER): inactive; negative
- mutagenic call (Test System: AMES SALMONELLA TYPHIMURIUM, Strain/Indicator: TA98, Metabolic Activation: RAT LIVER S-9, Method: VAPOR CHAMBER): inactive; negative
- mutagenic call (Test System: AMES SALMONELLA TYPHIMURIUM, Strain/Indicator: TA100, Metabolic Activation: NONE, Method: VAPOR CHAMBER): inactive; negative
- mutagenic call (Test System: AMES SALMONELLA TYPHIMURIUM, Strain/Indicator: TA100, Metabolic Activation: RAT LIVER S-9, Method: VAPOR CHAMBER): inactive; negative
- mutagenic call (Test System: AMES SALMONELLA TYPHIMURIUM, Strain/Indicator: TA1535, Metabolic Activation: NONE, Method: VAPOR CHAMBER): inactive; negative
- mutagenic call (Test System: AMES SALMONELLA TYPHIMURIUM, Strain/Indicator: TA1535, Metabolic Activation: RAT LIVER S-9, Method: VAPOR CHAMBER): inactive; negative

Compound: ONc1ccc(Oc2ccccc2)cc1
- mutagenic call [1]: active; positive
- mutagenic call [2]: active; positive

Compound: CCCC(=O)Nc1snc2ccccc12
- mutagenic call [2]: inactive; negative
- mutagenic call (Test System: AMES SALMONELLA TYPHIMURIUM, Strain/Indicator: TA100, Metabolic Activation: S-9, Method: STANDARD PLATE): inactive; negative

Compound: c12c3c4c5c1c1c6c7c2c2c8c3c3c9c4c4c%10c5c5c1c1c6c6c%11c7c2c2c7c8c3c3c8c9c4c4c9c%10c5c5c1c1c6c6c%11c2c2c7c3c3c8c4c4c9c5c1c1c6c2c3c41
- mutagenic call (End Point: In vitro chromosomal aberrations, Test System: Chinese hamster lung (CHL/IU) cells, Metabolic Activation: None): inactive; negative
- mutagenic call (End Point: In vitro chromosomal aberrations, Test System: Chinese hamster lung (CHL/IU) cells, Metabolic Activation: S-9): inactive; negative
- mutagenic call (End Point: In vitro micronucleus, Test System: Chinese hamster ovary (CHO) cells, Metabolic Activation: None): active; positive (material tested was fullerol, c60(oh)24); also recorded: active; positive; actual chemical tested was hydroxyl fullerene c-60
- mutagenic call (End Point: In vitro micronucleus, Test System: Human Hela cells, Metabolic Activation: None): active; positive (material tested was fullerol, c60(oh)24)
- mutagenic call (End Point: In vitro micronucleus, Test System: Human embryonic kidney 293 (HEK293) cells, Metabolic Activation: None): inactive; negative; actual chemical tested was hydroxyl fullerene c-60
- mutagenic call (End Point: In vitro micronucleus, Test System: Human embryonic kidney cells (HEK 293), Metabolic Activation: None): active; positive (material tested was fullerol, c60(oh)24)
- mutagenic call (End Point: In vitro micronucleus, Test System: Human epidermoid-like carcinoma (Hela) cells, Metabolic Activation: None): inactive; negative; actual chemical tested was hydroxyl fullerene c-60
- mutagenic call (Test System: Ames Salmonella typhimurium, Strain/Indicator: TA98, Metabolic Activation: None, Method: Preincubation): inactive; negative
- mutagenic call (Test System: Ames Salmonella typhimurium, Strain/Indicator: TA98, Metabolic Activation: S-9, Method: Preincubation): inactive; negative
- mutagenic call (Test System: Ames Salmonella typhimurium, Strain/Indicator: TA100, Metabolic Activation: None, Method: Preincubation): inactive; negative
- mutagenic call (Test System: Ames Salmonella typhimurium, Strain/Indicator: TA100, Metabolic Activation: S-9, Method: Preincubation): inactive; negative
- mutagenic call (Test System: Ames Salmonella typhimurium, Strain/Indicator: TA1535, Metabolic Activation: None, Method: Preincubation): inactive; negative
- mutagenic call (Test System: Ames Salmonella typhimurium, Strain/Indicator: TA1535, Metabolic Activation: S-9, Method: Preincubation): inactive; negative
- mutagenic call (Test System: Ames Salmonella typhimurium, Strain/Indicator: TA1537, Metabolic Activation: None, Method: Preincubation): inactive; negative
- mutagenic call (Test System: Ames Salmonella typhimurium, Strain/Indicator: TA1537, Metabolic Activation: S-9, Method: Preincubation): inactive; negative
- mutagenic call (Test System: E. coli, Strain/Indicator: WP2 uvrA/pKM101, Metabolic Activation: None, Method: Preincubation): inactive; negative
- mutagenic call (Test System: E. coli, Strain/Indicator: WP2 uvrA/pKM101, Metabolic Activation: S-9, Method: Preincubation): inactive; negative
- mutagenic call (Test System: Gpt delta transgenic mouse primary embryo fibroblasts (MEF), Strain/Indicator: Red/gam gene mutants, Metabolic Activation: None, Method: Spi- mutation assay): active; positive

Compound: CC(=O)[C@]1(O)Cc2c(O)c3c(c(O)c2[C@@H](O[C@H]2C[C@H](N)[C@H](O)[C@H](C)O2)C1)C(=O)c1ccccc1C3=O
- mutagenic call (Test System: AMES SALMONELLA TYPHIMURIUM, Strain/Indicator: GW257, Metabolic Activation: NONE, Method: STANDARD PLATE): active; positive
- mutagenic call [1]: active; positive
- mutagenic call [2]: active; positive
- mutagenic call (Test System: AMES SALMONELLA TYPHIMURIUM, Strain/Indicator: TA1538, Metabolic Activation: NONE, Method: STANDARD PLATE): active; positive
- mutagenic call (Test System: CHINESE HAMSTER V-79, Strain/Indicator: V-79/6-THIOGUANINE, Metabolic Activation: NONE, Method: SUSPENSION/PLATE): active; positive
- mutagenic call (Test System: UDS RAT HEPATOCYTES, Strain/Indicator: THY INCORP, Metabolic Activation: NONE, Method: AUTOMATIC COLONY COUNTER): active; positive

Compound: CCC[C@@H]1C[C@@H](C(=O)N[C@@H]([C@H]2O[C@H](SC)[C@H](O)[C@@H](O)[C@H]2O)[C@@H](C)O)N(C)C1
- mutagenic call (End Point: AMES SALMONELLA TYPHIMURIUM, Test System: TA98, Metabolic Activation: NONE, Method: STANDARD PLATE): active; positive
- mutagenic call (End Point: AMES SALMONELLA TYPHIMURIUM, Test System: TA100, Metabolic Activation: NONE, Method: STANDARD PLATE): active; positive
